Reference: patent US10457637B2, “Benzenesulfonamide derivatives as inverse agonists of retinoid-related orphan receptor gamma (RORγ(T))” (GALDERMA RESEARCH & DEVELOPMENT, priority 2014, dated 2019)

Columns and labels:
[1] = test system: IL-17A secretion by CD4+ cells; assay: IL-17A secretion by CD4+ cells (HTRF); assay type: cell-based; conditions: 96 h; human CD4+ cells activated with anti-CD3 and anti-CD28, 4 days of incubation; read-out: IC50 hCD4/IL17
Experimental: This model allows measurement of the effect of inhibitors on IL-17A secretion by CD4+ cells. […] The amount of IL-17a secreted is measured by the TR-FRET (kit HTRF® Human Interleukin 17A (Cisbio, #64H17PEC)) technology.
The cells are rapidly thawed, resuspended in their culture medium (RPMI inactivated 10% FCS) supplemented with soluble anti-CD28 antibodies and seeded (100 000 cells/well) in 96-well plates precoated with anti-CD3 antibodies. The cells are then treated with the ranges of inhibitors to be tested (from 1000 nM to 0.05 nM, 0.1% DMSO). […] The IC50 values are calculated from a 4-parameter logistic model using the XLFit software (IDBS).

[2] = target: ROR gamma ligand-binding domain (hRORg) (Homo sapiens (Human), UniProt P51449); assay: GAL4-RORγ transactivation (luciferase reporter, HG5LN HeLa line); assay type: cell-based; conditions: 18 hours incubation
Chain of ROR gamma ligand-binding domain (hRORg) (P51449 269-508): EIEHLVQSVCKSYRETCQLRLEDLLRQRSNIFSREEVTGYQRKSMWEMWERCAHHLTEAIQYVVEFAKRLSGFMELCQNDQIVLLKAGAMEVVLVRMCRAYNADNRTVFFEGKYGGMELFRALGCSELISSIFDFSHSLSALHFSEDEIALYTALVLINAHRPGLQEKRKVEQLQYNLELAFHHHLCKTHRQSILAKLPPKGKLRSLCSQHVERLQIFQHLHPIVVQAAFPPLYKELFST
Excerpt: GAL4-RORγ Transactivation
The RORγ transactivation model was developed from the line HG5LN, which is a HeLa line that stably expresses a luciferase reporter gene controlled by a pentamer of the GAL4 recognition domain of yeast and of a β-globin promoter. The HG5LN line was stably transfected by the DNA-binding domain (DBD) of GAL4 fused to the ROR gamma ligand-binding domain (LBD). Molecules that inhibit the ROR gamma constitutive activity reduce the luciferase expression, thus leading to a reduction in the emitted luminescence.
The cells are seeded in 384-well plates (5000 cells in 45 μL/well of culture medium containing 10% fetal calf serum) and incubated for 4 hours at 37° C., 5% CO2. 5 μL of the test molecules (compounds described in the tables described above) are then added to each well and the plates are incubated for 18 hours at a temperature of 37° C. under 5% of CO2. 20 μL of luciferase substrate (Promega) are added to each well and the luminescence emitted is read by a microplate reader.
The luminescence units (“RLU”) are normalized by positive controls (“POS” containing a saturated concentration of benzenesulfonamide, N-(2,2,2-trifluoroethyl)-N-[4-[2,2,2-trifluoro-1-hydroxy-1-(trifluoromethyl)ethyl]phenyl]) and negative controls (“NEG” containing DMSO): % inhibition=((RLU−NEG)*100)/(POS−NEG). The IC50 values are calculated from a 4-parameter logistic model using the XLFit software (IDBS).

| SMILES | IC50 [1] | IC50 [2] |
| --- | --- | --- |
| CCc1ccc(N(CC(C)C)S(=O)(=O)c2ccc(NCC3CSC3)c(S(C)(=N)=O)c2)cc1 (centres unmarked) [compound 99, N-(4-ethylphenyl)-N-isobutyl-3-(S-methylsulfonimidoyl)-4-((thietan-3-ylmethyl)amino)benzenesulfonamide] | < 100 nM | < 100 nM |
| CCc1ccc(N(CC(C)C)S(=O)(=O)c2ccc(N3CCSCC3)c(S(C)(=N)=O)c2)cc1 (centres unmarked) [compound 87, N-(4-ethylphenyl)-N-isobutyl-3-(S-methylsulfonimidoyl)-4-thiomorpholinobenzenesulfonamide] | < 100 nM | < 100 nM |
| CCc1ccc(N(CC(C)C)S(=O)(=O)c2ccc(NCc3ccncn3)c(S(C)(=N)=O)c2)cc1 (centres unmarked) [compound 133, N-(4-ethylphenyl)-N-isobutyl-3-(S-methylsulfonimidoyl)-4-((pyrimidin-4-ylmethyl)amino)benzenesulfonamide] | < 100 nM | < 100 nM |
| CCc1ccc(N(CC(C)C)S(=O)(=O)c2ccc(OCC3CCOCC3)c(S(=N)(=O)CC)c2)cc1 (centres unmarked) [compound 18, N-(4-ethylphenyl)-N-isobutyl-3-ethanesulfoximino-4-(tetrahydropyran-4-ylmethoxy)benzenesulfonamide] | < 100 nM |  |
| CCc1ccc(N(CC(C)C)S(=O)(=O)c2ccc(NCC3(CC)CCOCC3)c(S(C)(=N)=O)c2)cc1 (centres unmarked) [compound 124, N-(4-ethylphenyl)-4-(((4-ethyltetrahydro-2H-pyran-4-yl)methyl)amino)-N-isobutyl-3-(S-methylsulfonimidoyl)benzenesulfonamide] | < 100 nM |  |
| CCc1ccc(N(CC(C)C)S(=O)(=O)c2ccc(OCC3CCOCC3)c(S(N)(=O)=O)c2)cc1 [compound 66, 4-(tetrahydropyran-4-ylmethoxy)benzene-1,3-disulfonic acid 3-amide 1-[(4-ethylphenyl)isobutylamide]] | < 100 nM |  |
| CCc1ccc(N(CC(C)C)S(=O)(=O)c2ccc(NCC3CCOCC3)c(S(C)(=N)=O)c2)cc1 (centres unmarked) [compound 52, N-(4-ethylphenyl)-N-isobutyl-3-(S-methysulfonimidoyl)-4-[(tetrahydropyran-4-ylmethyl)amino]benzenesulfonamide] | < 100 nM |  |
| CCc1ccc(N(CC(C)C)S(=O)(=O)c2ccc3c(c2)NC(=O)CS3)cc1 [compound 10, 3-oxo-3,4-dihydro-2H-benzo[1,4]thiazine-6-sulfonic acid (4-ethylphenyl)isobutylamide] |  | > 1000 nM |
| CCc1ccc(N(CC(C)C)S(=O)(=O)c2ccc(NCC3(N4CCCC4)COC3)c(S(C)(=N)=O)c2)cc1 (centres unmarked) [compound 132, N-(4-ethylphenyl)-N-isobutyl-3-(S-methylsulfonimidoyl)-4-(((3-(pyrrolidin-1-yl)oxetan-3-yl)methyl)amino)benzenesulfonamide] |  | > 1000 nM |
| CCc1ccc(N(CC(C)C)S(=O)(=O)c2ccc3c(c2)N(CC2CCOCC2)C(=O)C[S+]3[O-])cc1 (centres unmarked) [compound 4, 1,3-dioxo-4-(tetrahydropyran-4-ylmethyl)-1,2,3,4-tetrahydro-1λ^4-benzo[1,4]thiazine-6-sulfonic acid (4-ethylphenyl)isobutylamide] |  | > 1000 nM |
| CCc1ccc(N(CC(C)C)S(=O)(=O)c2ccc(NCC3CNC(=O)O3)c(S(C)(=N)=O)c2)cc1 (centres unmarked) [compound 82, N-(4-ethylphenyl)-N-isobutyl-3-(S-methylsulfonimidoyl)-4-(((2-oxooxazolidin-5-yl)methyl)amino)benzenesulfonamide] |  | 100 to 1000 nM |
| CCc1ccc(N(CC(C)C)S(=O)(=O)c2ccc(NCc3nn[nH]n3)c(S(C)(=N)=O)c2)cc1 (centres unmarked) [compound 118, 4-(((2H-tetrazol-5-yl)methyl)amino)-N-(4-ethylphenyl)-N-isobutyl-3-(S-methylsulfonimidoyl)benzenesulfonamide] |  | > 1000 nM |

Next, values leading:

| IC50 [1] | IC50 [2] | SMILES |
| --- | --- | --- |
| < 100 nM | < 100 nM | CCc1ccc(N(CC(C)C)S(=O)(=O)c2ccc(N3CCOCC3)c(S(C)(=N)=O)c2)cc1 (centres unmarked) [compound 123, N-(4-ethylphenyl)-N-isobutyl-3-(S-methylsulfonimidoyl)-4-morpholinobenzenesulfonamide] |
| < 100 nM | < 100 nM | Cc1ccc(N(CC(C)C)S(=O)(=O)c2ccc(OCC3CCOCC3)c(S(C)(=N)=O)c2)c(C)c1 (centres unmarked) [compound 142, N-(2,4-dimethylphenyl)-N-isobutyl-3-(S-methylsulfonimidoyl)-4-((tetrahydro-2H-pyran-4-yl)methoxy)benzenesulfonamide] |
| < 100 nM | < 100 nM | CCc1ccc(N(CC(C)C)S(=O)(=O)c2ccc(OCC3(F)CCOCC3)c(S(C)(=N)=O)c2)cc1 (centres unmarked) [compound 30, N-(4-ethylphenyl)-4-((4-fluorotetrahydro-2H-pyran-4-yl)methoxy)-N-isobutyl-3-(S-methylsulfonimidoyl)benzenesulfonamide] |
| > 1000 nM | > 1000 nM | CCc1ccc(N(CC(C)C)S(=O)(=O)c2ccc(N3CCOC[C@H]3C)c(S(C)(=N)=O)c2)cc1 (stereo partly drawn) [compound 103, N-(4-ethylphenyl)-N-isobutyl-4-((R)-3-methylmorpholino)-3-(S-methylsulfonimidoyl)benzenesulfonamide] |
| > 1000 nM | > 1000 nM | CCc1ccc(N(CC(C)C)S(=O)(=O)c2ccc(N3CC[C@H](O)C3)c(S(C)(=N)=O)c2)cc1 (stereo partly drawn) [compound 129, N-(4-ethylphenyl)-4-((S)-3-hydroxypyrrolidin-1-yl)-N-isobutyl-3-(S-methylsulfonimidoyl)benzenesulfonamide] |
| < 100 nM | 100 to 1000 nM | CCc1ccc(N(CC(C)C)S(=O)(=O)c2ccc(N3CCC4(COC4)C3)c(S(C)(=N)=O)c2)cc1 (centres unmarked) [compound 112, N-(4-ethylphenyl)-N-isobutyl-3-(S-methylsulfonimidoyl)-4-(2-oxa-6-azaspiro[3.4]octan-6-yl)benzenesulfonamide] |
|  | 100 to 1000 nM | CCc1ccc(N(CC(C)C)S(=O)(=O)c2ccc(NCC3COC3)c(S(C)(=N)=O)c2)cc1 (centres unmarked) [compound 54, N-(4-ethylphenyl)-N-isobutyl-3-(S-methylsulfonimidoyl)-4-((oxetan-3-ylmethyl)amino)benzenesulfonamide] |
|  | 100 to 1000 nM | CCc1ccc(N(CC(C)C)S(=O)(=O)c2ccc(OCC3CCOCC3)c([S+]([O-])CC)c2)cc1 (centres unmarked) [compound 22, ethanesulfinyl-N-(4-ethylphenyl)-N-isobutyl-4-(tetrahydropyran-4-ylmethoxy)benzenesulfonamide] |
|  | > 1000 nM | CCc1ccc(N(CC(C)C)S(=O)(=O)c2ccc(OCc3ccnc(OC)c3)c(S(C)(=N)=O)c2)cc1 (centres unmarked) [compound 77, N-(4-ethylphenyl)-N-isobutyl-4-((2-methoxypyridin-4-yl)methoxy)-3-(S-methylsulfonimidoyl)benzenesulfonamide] |
|  | 100 to 1000 nM | CCc1ccc(N(CC(C)C)S(=O)(=O)c2ccc(OCC3CCOCC3)c(SC)c2)cc1 [compound 25, N-(4-ethylphenyl)-N-isobutyl-3-methylsulfanyl-4-(tetrahydropyran-4-ylmethoxy)benzenesulfonamide] |
|  | 100 to 1000 nM | CCc1ccc(N(CC(C)C)S(=O)(=O)c2ccc(N3CC4CC3CO4)c(S(C)(=N)=O)c2)cc1 [compound 117, 4-((1R,4R)-2-oxa-5-azabicyclo[2.2.1]heptan-5-yl)-N-(4-ethylphenyl)-N-isobutyl-3-(S-methylsulfonimidoyl)benzenesulfonamide] |
